The values that follow come from US9051310B2, “Nicotinamide derivative or salt thereof” (FUJIFILM Corporation, priority 2011, dated 2015).

Structures are written as SMILES. A value given as a limit tells only on which side of the number the result lay.

The term IC50 denotes the midpoint of a concentration-inhibition curve.

This assay has as its target T1, glutathione S-transferase (GST)-linked full-length human Syk protein (Homo sapiens, UniProt P43405).
T1 construct: glutathione S-transferase (GST)-linked full-length human Syk protein; purchased Carna Biosciences; host or cells: Baculovirus expression system
The assay is described as follows: Syk enzyme assay. It is filed as biochemical. The conditions noted are these: 0.83 nM Syk, time-resolved fluorescence; read-out: IC50 of Syk-inhibitory activity. Put shortly:
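Phosphotyrosine on a biotin-peptide substrate (0.5 μM) was read by time-resolved fluorescence at 615 and 665 nm with Eu-anti-pTyr antibody and APC-streptavidin after 1 h EDTA stop.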
Turning to `Cc1ncc(Nc2nc(N[C@H](c3cccc(F)c3)[C@H](C)N)c(F)cc2C(N)=O)cc1-n1nccn1` [Example 2-412, 6-(((1R,2S)-2-amino-1-(3-fluorophenyl)propyl)amino)-5-fluoro-2-((6-methyl-5-(2H-1,2,3-triazol-2-yl)pyridin-3-yl)amino)nicotinamide], the IC50 lay within 10 to 50 nM.
Then `CCOc1ncc(Nc2nc(N[C@H](CC)[C@H](C)N)c(F)cc2C(N)=O)cc1-n1ccnn1` [Example 2-206, 6-(((2S,3R)-2-aminopentan-3-yl)amino)-2-((6-ethoxy-5-(1H-1,2,3-triazol-1-yl)pyridin-3-yl)amino)-5-fluoronicotinamide], with 10 to 50 nM.
Turning to `COCCOc1ncc(Nc2nc(N[C@H](C3CCC3)[C@H](C)N)c(F)cc2C(N)=O)cc1-n1nccn1` [Example 2-165, 6-(((1R,2S)-2-amino-1-cyclobutylpropyl)amino)-5-fluoro-2-((6-(2-methoxyethoxy)-5-(2H-1,2,3-triazol-2-yl)pyridin-3-yl)amino)nicotinamide], the IC50 lay within 10 to 50 nM.
Turning to `C[C@@H](Nc1nc(Nc2ccc3c(c2)c(N(C)C)nn3C)c(C(N)=O)cc1F)[C@@H](N)C1CC1` [Example 2-301, 6-(((1S,2R)-1-amino-1-cyclopropylpropan-2-yl)amino)-2-((3-(dimethylamino)-1-methyl-1H-indazol-5-yl)amino)-5-fluoronicotinamide], the IC50 is 50 to 100 nM.
Turning to `C[C@H](N)[C@H](Nc1nc(Nc2cncc3c2cnn3CC(F)F)c(C(N)=O)cc1F)C1CCC1` [Example 2-401, 6-(((1R,2S)-2-amino-1-cyclobutylpropyl)amino)-2-((1-(2,2-difluoroethyl)-1H-pyrazolo[3,4-c]pyridin-4-yl)amino)-5-fluoronicotinamide], the IC50 was < 10 nM.
With `CC[C@@H](Nc1nc(Nc2ccnc(OCCOC)c2)c(C(N)=O)cc1F)[C@H](C)N` [Example 2-34, 6-(((2S,3R)-2-aminopentan-3-yl)amino)-5-fluoro-2-((2-(2-methoxyethoxy)pyridin-4-yl)amino)nicotinamide], the IC50 was in the range of 10 to 50 nM.
Then `CC[C@H](N)[C@H](Nc1nc(Nc2cnc(C)c(F)c2)c(C(N)=O)cc1F)C1CC1` [Example 2-382, 6-(((1R,2S)-2-amino-1-cyclopropylbutyl)amino)-5-fluoro-2-((5-fluoro-6-methylpyridin-3-yl)amino)nicotinamide], with 10 to 50 nM; and `CC[C@@H](Nc1nc(Nc2cnc(OCCOC)c(-n3nccn3)c2)c(C(N)=O)cc1F)[C@H](C)N` [Example 2-202, 6-(((2S,3R)-2-aminopentan-3-yl)amino)-5-fluoro-2-((6-(2-methoxyethoxy)-5-(2H-1,2,3-triazol-2-yl)pyridin-3-yl)amino)nicotinamide], with 50 to 100 nM; and `COCCNc1nn(C)c2ccc(Nc3nc(N[C@@H]4CCCC[C@@H]4N)c(F)cc3C(N)=O)cc12` [Example 2-462, 6-(((1R,2S)-2-aminocyclohexyl)amino)-5-fluoro-2-((3-((2-methoxyethyl)amino)-1-methyl-1H-indazol-5-yl)amino)nicotinamide], with 10 to 50 nM.
Consider `CC(C)c1ccc(Nc2nc(N[C@@H]3CCCC[C@@H]3N)c(F)cc2C(N)=O)cc1` [Example 2-448, 6-(((1R,2S)-2-aminocyclohexyl)amino)-5-fluoro-2-((4-isopropylphenyl)amino) nicotinamide], for which the IC50 lay in the range of 10 to 50 nM.
The value for `C[C@H](N)[C@H](Nc1nc(Nc2ccc3[nH]nc(N(C)C)c3c2)c(C(N)=O)cc1F)C1CC1` [Example 2-494, 6-(((1R,2S)-2-amino-1-cyclopropylpropyl)amino)-2-((3-(dimethylamino)-1H-indazol-5-yl)amino)-5-fluoronicotinamide] was < 10 nM; that for `CC[C@@H](Nc1nc(Nc2ccc3c(c2)c(NCCOC)nn3CCOC)c(C(N)=O)cc1F)[C@H](C)N` [Example 2-536, 6-(((2S,3R)-2-aminopentan-3-yl)amino)-5-fluoro-2-((1-(2-methoxyethyl)-3-((2-methoxyethyl)amino)-1H-indazol-5-yl)amino)nicotinamide] was 10 to 50 nM.
The value for `COCCOc1cc(Nc2nc(N[C@H](C)[C@@H](N)C3CC3)c(F)cc2C(N)=O)ccn1` [Example 2-228, 6-(((1S,2R)-1-amino-1-cyclopropylpropan-2-yl)amino)-5-fluoro-2-((2-(2-methoxyethoxy)pyridin-4-yl)amino)nicotinamide] was 50 to 100 nM.
With `CC[C@H](N)[C@H](Nc1nc(Nc2cnc(N3CCOCC3)c(F)c2)c(C(N)=O)cc1F)C1CC1` [Example 2-359, 6-(((1R,2S)-2-amino-1-cyclopropylbutyl)amino)-5-fluoro-2-((5-fluoro-6-morpholinopyridin-3-yl)amino)nicotinamide], the IC50 is 50 to 100 nM.
For the molecule `COCCn1ncc2c(Nc3nc(N[C@@H](CN)CC(C)C)c(F)cc3C(N)=O)cccc21` [Example 2-303, (R)-6-((1-amino-4-methylpentan-2-yl)amino)-5-fluoro-2-((1-(2-methoxyethyl)-1H-indazol-4-yl)amino)nicotinamide], the IC50 was < 10 nM.
Then `COc1cc(Nc2nc(N[C@H](C(C)C)[C@H](C)N)c(F)cc2C(N)=O)cc(OC)n1` [Example 2-108, 6-(((2S,3R)-2-amino-4-methylpentan-3-yl)amino)-2-((2,6-dimethoxypyridin-4-yl)amino)-5-fluoronicotinamide], with 50 to 100 nM.
Turning to `CCC[C@@H](Nc1nc(Nc2cnc3c(c2)c(N(C)C)nn3C)c(C(N)=O)cc1F)[C@H](C)N` [Example 2-289, 6-(((2S,3R)-2-aminohexan-3-yl)amino)-2-((3-(dimethylamino)-1-methyl-1H-pyrazolo[3,4-b]pyridin-5-yl)amino)-5-fluoronicotinamide], the IC50 is < 10 nM.
`CC[C@@H](Nc1nc(Nc2ccc3c(c2)c(NC)nn3C)c(C(N)=O)cc1F)[C@H](C)N` [Example 2-497, 6-(((2S,3R)-2-aminopentan-3-yl)amino)-5-fluoro-2-((1-methyl-3-(methylamino)-1H-indazol-5-yl)amino)nicotinamide]: the IC50 was in the range of 50 to 100 nM.
Then `CC[C@@H](Nc1nc(Nc2cnc3c(c2)c(N(C)C)nn3C)c(C(N)=O)cc1F)[C@H](C)N` [Example 2-288, 6-(((2S,3R)-2-aminopentan-3-yl)amino)-2-((3-(dimethylamino)-1-methyl-1H-pyrazolo[3,4-b]pyridin-5-yl)amino)-5-fluoronicotinamide], with 10 to 50 nM.
Consider `C[C@H](N)[C@@H](CC1CC1)Nc1nc(Nc2ccc3nn(C)c(N(C)C)c3c2)c(C(N)=O)cc1F` [Example 2-14, 6-(((2R,3S)-3-amino-1-cyclopropylbutan-2-yl)amino)-2-((3-(dimethylamino)-2-methyl-2H-indazol-5-yl)amino)-5-fluoronicotinamide], for which the IC50 fell in the range of 10 to 50 nM.
For `COCCn1nc(N(C)C)c2cc(Nc3nc(N[C@@H]4CCCC[C@@H]4N)c(F)cc3C(N)=O)ccc21` [Example 2-500, 6-(((1R,2S)-2-aminocyclohexyl)amino)-2-((3-(dimethylamino)-1-(2-methoxyethyl)-1H-indazol-5-yl)amino)-5-fluoronicotinamide], the IC50 was in the range of 10 to 50 nM.
For `COCCn1ncc2c(Nc3nc(N[C@H](COC)[C@H](C)N)c(F)cc3C(N)=O)cccc21` [Example 2-309, 6-(((2S,3S)-3-amino-1-methoxybutan-2-yl)amino)-5-fluoro-2-((1-(2-methoxyethyl)-1H-indazol-4-yl)amino)nicotinamide], the IC50 lay in the range of 10 to 50 nM.
As to `CCC[C@@H](Nc1nc(Nc2cnc(N3CCOCC3)c(F)c2)c(C(N)=O)cc1F)[C@H](C)N` [Example 2-260, 6-(((2S,3R)-2-aminohexan-3-yl)amino)-5-fluoro-2-((5-fluoro-6-morpholinopyridin-3-yl)amino)nicotinamide], the IC50 was 10 to 50 nM.
For the molecule `COCCn1nc(N(C)C)c2cc(Nc3nc(N[C@H](C4CC4)[C@H](C)N)c(F)cc3C(N)=O)ccc21` [Example 2-504], the IC50 was in the range of 10 to 50 nM.
In the case of `CC(C)C[C@H](CN)Nc1nc(Nc2ccc3c(c2)c(N(C)C)nn3C)c(C(N)=O)cc1F` [Example 2-86, (R)-6-((1-amino-4-methylpentan-2-yl)amino)-2-((3-(dimethylamino)-1-methyl-1H-indazol-5-yl)amino)-5-fluoronicotinamide], the IC50 was < 10 nM.
Regarding `COCCOc1ncc(Nc2nc(N[C@H](CC(C)C)[C@H](C)N)c(F)cc2C(N)=O)cc1-n1nccn1` [Example 2-140, 6-(((2S,3R)-2-amino-5-methylhexan-3-yl)amino)-5-fluoro-2-((6-(2-methoxyethoxy)-5-(2H-1,2,3-triazol-2-yl)pyridin-3-yl)amino)nicotinamide], the IC50 was in the range of 10 to 50 nM.
With `COCCN(C)c1nn(C)c2ccc(Nc3nc(N[C@H](C4CC4)[C@H](C)N)c(F)cc3C(N)=O)cc12` [Example 2-460, 6-(((1R,2S)-2-amino-1-cyclopropylpropyl)amino)-5-fluoro-2-((3-((2-methoxyethyl)(methyl)amino)-1-methyl-1H-indazol-5-yl)amino)nicotinamide], the IC50 was < 10 nM.
In the case of `COc1ncc(Nc2nc(N[C@H](C3CC3)[C@H](C)N)c(F)cc2C(N)=O)c2cnn(C)c12` [Example 2-408, 6-(((1R,2S)-2-amino-1-cyclopropylpropyl)amino)-5-fluoro-2-((7-methoxy-1-methyl-1H-pyrazolo[3,4-c]pyridin-4-yl)amino)nicotinamide], the IC50 lay within 50 to 100 nM.
In the case of `COCCOc1ncc(Nc2nc(N[C@H](C3CC3)[C@H](C)N)c(F)cc2C(N)=O)cc1F` [Example 2-115, 6-(((1R,2S)-2-amino-1-cyclopropylpropyl)amino)-5-fluoro-2-((5-fluoro-6-(2-methoxyethoxy)pyridin-3-yl)amino)nicotinamide], the IC50 was in the range of 10 to 50 nM.
Turning to `CC[C@H](N)[C@@H](C)Nc1nc(Nc2ccc3c(c2)c(NC)nn3C)c(C(N)=O)cc1F` [Example 2-499, 6-(((2R,3S)-3-aminopentan-2-yl)amino)-5-fluoro-2-((1-methyl-3-(methylamino)-1H-indazol-5-yl)amino)nicotinamide], the concentration for half-maximal inhibition (IC50) is 10 to 50 nM.
